{"source": "patent US20090163510A1", "about": "(Bristol-Myers Squibb Company, priority 2005, published 2009)", "origin": "cited, not measured here", "test_system": "CML", "settings": "CML patients, Kantarjian et al.", "note": "Counter-ions that a name gives are not always drawn. Like-named read-outs stand apart in the source and are kept apart here.", "data": [{"smiles": "Cc1ccc(NC(=O)c2ccc(CN3CCN(C)CC3)cc2)cc1Nc1nccc(-c2cccnc2)n1", "note": "[imatinib, Imatinib mesylate]", "values": [{"measurement": "estimated 2-year incidence of resistance", "setting": "blastic phase", "result": 80, "unit": "%"}, {"measurement": "estimated 2-year incidence of resistance", "setting": "chronic phase post-interferon failure", "result": 10, "unit": "%"}]}]}
